We go through 5 compounds from EP1736154A1 (priority 2005, dated 2006).

Starred links: 1 amine or outer side, 2 acyl side, 3 side chain; linkers in the order of their positions; H or OH if unused. Positions of bridges follow the written chain, without caps; N, C: chain ends. Non-standard residues stand in square brackets, D forms with d. Residues, ends and D or L forms follow the SMILES beside them. Adda = CO[C@@H](Cc1ccccc1)[C@@H](C)/C=C(C)/C=C/[C@H](N[*:1])[C@H](C)C(=O)[*:2]; dAsp(3S-Me) = C[C@H](C(=O)[*:3])[C@@H](N[*:1])C(=O)[*:2]; d(γGlu) = O=C(O)[C@@H](CCC(=O)[*:2])N[*:1]; NMeDha = C=C(NC)C(=O)O

The subject of one test is SMN2 minigene, exon 7. In kind it is cell-based.
In the next test the test system is tau exon 10 minigene. In kind it is cell-based, human.
Another test has as its system SMN protein. In words: SMN protein expression in SMA patient fibroblasts (Western blot with anti-SMN antibody).

`COC[C@@H]([C@H](O)[C@H](O)C(=O)NCC[C@H](C)c1nc(/C=C/C[C@@H]2O[C@]3(C[C@@H](O)[C@@H]2C)O[C@H]([C@H](C[C@H](O)[C@H](C)[C@H](O)[C@H](C)/C=C(C)/C(C)=C/C=C/C(C)=C\C#N)OC)[C@H](OP(=O)(O)O)C3(C)C)co1)N(C)C` [Calyculin A]: the “exon 7 inclusion of SMN2 MG” value in the test with SMN2 minigene, exon 7 is on record as “promote the exon 7 inclusion”.

For the compound `C[C@@]12C(=O)OC(=O)[C@]1(C)[C@H]1CC[C@@H]2O1` [Cantharidin], the “exon 7 inclusion of SMN2 MG” value in the test on SMN2 minigene, exon 7 is “promote the exon 7 inclusion”.

For `CN(N=O)c1cc(O)ccc1O` [Dephostatin], the “exon 7 inclusion of SMN2 MG” value in the test with SMN2 minigene, exon 7 was “promote the exon 7 inclusion”.

For `C=C1C(=O)N[C@H](C)C(=O)N[C@@H](CC(C)C)C(=O)N[C@@H](C(=O)O)[C@H](C)C(=O)N[C@@H](CCCNC(=N)N)C(=O)N[C@@H](/C=C/C(C)=C/[C@H](C)[C@H](Cc2ccccc2)OC)[C@H](C)C(=O)N[C@@H](C(=O)O)CCC(=O)N1C` [Microcystin ―LR, Microcystin-LR] (R[Adda][d(γGlu)][NMeDha][dA]L[dAsp(3S-Me)]-OH; lactam N-7), the “exon 7 inclusion of SMN2 MG” value in the test with SMN2 minigene, exon 7 is listed as “promote the exon 7 inclusion”.

`CO[C@H]([C@H](O)CC(=O)[C@@H](C)[C@@H](O)CC[C@@H](C)[C@@H]1O[C@]2(CC[C@@H](C)[C@H](CC[C@H](C)C(C)=O)O2)CC[C@@H]1C)[C@H](OC(=O)C[C@@H](O)C1=C(C)C(=O)OC1=O)C(C)C` [Tautomycin]: in the test on SMN2 minigene, exon 7, the “inclusion of tra2-beta1 dependent enhancers, SMN2-minigene” value is listed as “promotes inclusion of tra2-beta1 dependent enhancers” and the “tra2-betal-dependent splicing enhancers (SMN2 MG splicing pattern)” value is “can be manipulated”. In addition, the “inclusion of tra2-beta1 dependent enhancers, tau exon 10 minigene” value in the test with tau exon 10 minigene is “promotes inclusion of tra2-beta1 dependent enhancers”. For the same compound, the “SMN Protein formation in human fibroblasts” value in the test on SMN protein is on record as “promotes SMN Protein formation”.
